The conditions of the data set: in vivo.

Source text: In the insufflation to inflate the intestinal tract, a carbon dioxide gas (CO2) was supplied by using a hand operated double balloon pump through the transanal route. […] No anticonvulsive agent was used.
The procedure of the imaging was such that: firstly, the posture of the examinee was set to the left lateral decubitus position; a tube for insufflation was inserted; and a gas was supplied to confirm that smooth insufflation was possible. Next, the posture of the examinee was set to the abdominal position; the insufflation was conducted until the examinee had claimed a strong feeling of fullness or the pressure inside the intestinal tract had reached 25 mmHg; scanography was performed to confirm that the large intestine had been sufficiently inflated; and thereafter the CT image was taken. After taking the image of the abdominal position, the posture of the examinee was set to the dorsal position, and scanography was again performed to take the CT image in the dorsal position. At this time, if the inflation of the large intestine had been insufficient, additional insufflation was conducted. After the completion of the CT image taking, colon endoscopy was conducted to see the circumstances of the residual feces and residual liquid in the large intestine by eye. The CT image was taken under the charge of a clinical X-ray technician.

As for `O=C=O` [CO2, carbon dioxide gas], the “examinees who felt abdominal pains” value was 50.0%.

The record behind these values is patent US20130052143A1, “LIQUID PREPARATION FOR ORAL ADMINISTRATION TO BE USED IN CT COLONOGRAPHY, AND COMPOSITION FOR DIGESTIVE TRACT IMAGING” (Ajinomoto Co., Inc., priority 2010, published 2013).
